Experiments:
hPPARδ = biological target: T1, hPPARδ (Homo sapiens, UniProt Q03181); experiment: Gal4-hPPARδ chimera transactivation in COS-7 cells (luciferase); format: cell-based; conditions: induction factor standardised to an internal reference, read-out: % hGal4-PPAR transactivation (10 μM) delta
T1 construct: fragments of DNA amplified by PCR corresponding to the DEF domains of the human PPARα, PPARγ PPARδ nuclear receptors; expressed in transfected cells; host or cells: COS-7 (monkey kidney fibroblast line)
T1 sequence (Q03181 211-439 limits assumed): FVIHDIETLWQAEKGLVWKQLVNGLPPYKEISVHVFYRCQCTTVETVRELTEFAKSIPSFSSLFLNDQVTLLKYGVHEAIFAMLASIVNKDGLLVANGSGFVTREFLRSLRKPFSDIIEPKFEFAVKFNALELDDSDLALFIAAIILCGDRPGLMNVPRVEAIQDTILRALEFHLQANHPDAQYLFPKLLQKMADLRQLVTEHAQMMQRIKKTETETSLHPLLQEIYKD
Method in brief: (§1)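 COS-7 cells transiently transfected with Gal4-DBD/human PPAR DEF-domain chimeras plus Gal4(RE)_TkpGL3 luciferase reporter (1/10 ratio), then exposed 24 h serum-free to compound at 10 μM. Luciferase induction factor over control, normalised to an internal reference per isoform, expressed as percent activation.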

[1] = biological target: T2, ATP-dependent potassium channels (K+ATP) (Rattus norvegicus, UniProt Q09429); experiment: [3H]glibenclamide binding to ATP-dependent potassium channels of rat cerebral cortex; conditions: 1 h; 300 nM; specific displacement of [3H]glibenclamide 0.1 nM; read-out: KATP binding (300 nM)
T2 construct: the potassium channels derive from a rat's cerebral cortex; tissue CEREP; host or cells: rat cerebral cortex
T2 sequence (Q09429 whole entry): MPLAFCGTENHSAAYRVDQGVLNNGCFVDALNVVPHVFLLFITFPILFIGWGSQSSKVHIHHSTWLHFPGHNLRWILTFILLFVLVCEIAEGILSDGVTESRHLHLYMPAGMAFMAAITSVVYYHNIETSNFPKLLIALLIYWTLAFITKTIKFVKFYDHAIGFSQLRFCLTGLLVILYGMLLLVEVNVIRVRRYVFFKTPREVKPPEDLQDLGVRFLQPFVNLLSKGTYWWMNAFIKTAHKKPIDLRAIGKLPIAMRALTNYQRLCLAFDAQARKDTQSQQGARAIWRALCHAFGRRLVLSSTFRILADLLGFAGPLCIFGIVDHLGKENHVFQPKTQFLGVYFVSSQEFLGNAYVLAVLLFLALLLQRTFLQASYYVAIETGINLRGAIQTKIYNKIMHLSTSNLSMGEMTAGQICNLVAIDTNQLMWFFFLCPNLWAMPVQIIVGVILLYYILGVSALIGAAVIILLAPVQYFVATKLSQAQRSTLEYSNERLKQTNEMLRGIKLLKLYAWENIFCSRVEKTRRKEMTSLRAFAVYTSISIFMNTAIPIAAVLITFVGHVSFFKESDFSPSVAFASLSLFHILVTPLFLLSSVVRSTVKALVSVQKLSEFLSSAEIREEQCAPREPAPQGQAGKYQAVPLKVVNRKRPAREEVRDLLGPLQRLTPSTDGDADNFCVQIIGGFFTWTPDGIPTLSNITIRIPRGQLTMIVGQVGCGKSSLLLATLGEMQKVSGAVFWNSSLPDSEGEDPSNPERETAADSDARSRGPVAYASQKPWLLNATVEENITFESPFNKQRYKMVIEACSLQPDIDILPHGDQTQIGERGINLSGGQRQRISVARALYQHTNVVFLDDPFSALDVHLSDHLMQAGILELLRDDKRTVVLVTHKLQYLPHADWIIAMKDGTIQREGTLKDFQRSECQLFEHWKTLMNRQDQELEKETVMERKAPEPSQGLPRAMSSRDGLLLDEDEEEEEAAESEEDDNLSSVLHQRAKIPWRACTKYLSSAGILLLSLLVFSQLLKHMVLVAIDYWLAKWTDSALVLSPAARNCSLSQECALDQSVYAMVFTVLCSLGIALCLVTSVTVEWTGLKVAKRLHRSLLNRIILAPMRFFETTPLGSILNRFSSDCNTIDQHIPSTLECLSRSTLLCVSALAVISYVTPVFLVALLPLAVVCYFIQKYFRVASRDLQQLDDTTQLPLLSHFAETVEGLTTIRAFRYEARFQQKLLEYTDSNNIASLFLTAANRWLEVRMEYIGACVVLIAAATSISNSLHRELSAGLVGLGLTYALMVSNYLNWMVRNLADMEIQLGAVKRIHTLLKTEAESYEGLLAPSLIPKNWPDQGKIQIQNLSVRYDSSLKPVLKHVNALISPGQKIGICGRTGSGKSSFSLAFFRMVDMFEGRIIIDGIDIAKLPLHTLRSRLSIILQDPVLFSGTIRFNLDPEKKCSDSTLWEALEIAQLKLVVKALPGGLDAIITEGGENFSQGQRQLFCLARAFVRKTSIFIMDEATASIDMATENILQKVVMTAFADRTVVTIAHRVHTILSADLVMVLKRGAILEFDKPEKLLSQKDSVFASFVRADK
T2 sequence (P70673 whole entry partner): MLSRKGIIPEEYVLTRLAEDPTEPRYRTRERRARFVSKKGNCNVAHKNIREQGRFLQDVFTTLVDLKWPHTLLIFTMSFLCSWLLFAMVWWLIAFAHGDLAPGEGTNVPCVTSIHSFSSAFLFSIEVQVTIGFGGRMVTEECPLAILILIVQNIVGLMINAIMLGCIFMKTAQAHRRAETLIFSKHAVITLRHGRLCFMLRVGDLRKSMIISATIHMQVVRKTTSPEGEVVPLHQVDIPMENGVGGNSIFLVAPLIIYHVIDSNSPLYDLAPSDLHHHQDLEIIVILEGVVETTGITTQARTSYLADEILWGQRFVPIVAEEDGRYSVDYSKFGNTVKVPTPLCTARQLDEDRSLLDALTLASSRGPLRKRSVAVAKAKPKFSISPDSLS
Method in brief: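 Rat cerebral cortex membranes incubated 1 h at 22° C with 0.1 nM [3H]glibenclamide; nonspecific binding defined with 1 μM unlabelled glibenclamide. Compounds tested at 3–300 nM; values are percent inhibition of specific binding.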

hPPARγ = biological target: T3, hPPARγ (Homo sapiens, UniProt P37231); experiment: Gal4-hPPARγ chimera transactivation in COS-7 cells (luciferase); format: cell-based; conditions: induction factor standardised to an internal reference, read-out: % hGal4-PPAR transactivation (10 μM) gamma
T3 construct: fragments of DNA amplified by PCR corresponding to the DEF domains of the human PPARα, PPARγ PPARδ nuclear receptors; expressed in transfected cells; host or cells: COS-7 (monkey kidney fibroblast line)
T3 sequence (P37231 238-503 limits assumed): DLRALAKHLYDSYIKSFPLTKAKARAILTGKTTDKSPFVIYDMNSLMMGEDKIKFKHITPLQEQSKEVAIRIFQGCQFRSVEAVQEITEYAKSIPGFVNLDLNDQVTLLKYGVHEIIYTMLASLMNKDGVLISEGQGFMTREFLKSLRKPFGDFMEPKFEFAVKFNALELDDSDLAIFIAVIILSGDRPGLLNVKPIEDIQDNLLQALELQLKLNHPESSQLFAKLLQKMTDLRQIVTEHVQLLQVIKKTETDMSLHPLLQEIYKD
Method in brief: as §1

activation at 10 µM (hPPARδ): < 10% | inhibition at 0.3 µM [1]: 83% | activation at 10 µM (hPPARγ): < 10%
Structure (SMILES): CCCCC(NC(=O)Cc1ccc(OC(C)(C)C(=O)NS(C)(=O)=O)cc1)c1ccccc1N1CCCCC1 (stereo not drawn) [Compound 52, N-[methylsulfonyl]-2-[4-[1-(1-(2-(1-piperidinyl)phenyl)pentyl)aminocarbonylmethyl]phenoxy]-2-methylpropanamide]
